Experimental data taken from ChEMBL document CHEMBL1201862, “PubChem BioAssay data set” (2004).
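1) Cells in 96-well plates. 2) Compound, 48 h, 5 concentrations. 3) Linear interpolation between surrounding doses. 4) Unreached endpoint = highest concentration. The concentration for 50% growth inhibition is given as GI50.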 The source made the active and inactive calls. Cut-off read from the data, not from the text of the source: active = GI50 up to about 1.1 µM and inactive = higher.

Key:
Assay in all cases: NCI tumour cell line growth inhibition, 48 h
[1] = test system: DLD-1
[2] = test system: SNB-78
[3] = test system: XF498
[4] = test system: DMS-273
[5] = test system: M19-MEL
[6] = test system: LXFL 529
[7] = test system: KM-20L2
[8] = test system: RXF 631
[9] = test system: HOP-18

SMILES	GI50 [1]	GI50 [2]	GI50 [3]	GI50 [4]	GI50 [5]	GI50 [6]	GI50 [7]	GI50 [8]	GI50 [9]
CC1(n2nc(-c3ccccc3)n(-c3ccccc3)c2=O)CSC1	> 100 µM (inactive)	> 100 µM (inactive)	58.9 µM (inactive)	82.4 µM (inactive)	> 100 µM (inactive)	> 100 µM (inactive)	> 100 µM (inactive)	–	–
Clc1ccc2c(Cl)nc(-c3ccccc3)nc2c1	27.6 µM (inactive)	11.4 µM (inactive)	3.88 µM (inactive)	36.7 µM (inactive)	47.1 µM (inactive)	26.9 µM (inactive)	25.6 µM (inactive)	–	–
CS/C(=N\c1ccccc1)N(c1ccccc1)c1nc(=[N+](C)C)ss1.[O-][Cl+3]([O-])([O-])[O-]	–	5.06 µM (inactive)	–	0.166 µM (active)	0.0877 µM (active)	–	1.06 µM (active)	–	–
O=Cc1cn(C(=O)c2ccccc2)c2ccccc12	> 100 µM (inactive)	36.9 µM (inactive)	–	> 100 µM (inactive)	> 100 µM (inactive)	51.3 µM (inactive)	> 100 µM (inactive)	–	–
CCOC(=O)[C@H]1Nc2ccc(Cl)cc2[C@H]2OCC[C@@H]12	> 100 µM (inactive)	> 100 µM (inactive)	> 100 µM (inactive)	> 100 µM (inactive)	> 100 µM (inactive)	> 100 µM (inactive)	> 100 µM (inactive)	> 100 µM (inactive)	> 100 µM (inactive)
COc1cc(OC)c(C#N)c(OC)c1C	> 100 µM (inactive)	> 100 µM (inactive)	5.62 µM (inactive)	> 100 µM (inactive)	> 100 µM (inactive)	> 100 µM (inactive)	> 100 µM (inactive)	–	–
O=C(c1ccccc1)[C@H]1Nc2ccc(Cl)cc2[C@H]2OCCC[C@@H]12	–	24.1 µM (inactive)	19.5 µM (inactive)	19.3 µM (inactive)	23 µM (inactive)	12.1 µM (inactive)	16.7 µM (inactive)	17.9 µM (inactive)	18.5 µM (inactive)
CN(C)CCC(/C=C/c1ccccc1)=N\Nc1c(F)c(F)c(F)c(F)c1F	> 100 µM (inactive)	50.9 µM (inactive)	–	36.8 µM (inactive)	39.4 µM (inactive)	77.8 µM (inactive)	–	–	44.1 µM (inactive)
O=P(Nc1cccc(Cl)c1)(Oc1ccccc1)N(CCCl)CCCl (stereo not drawn)	14.4 µM (inactive)	18.3 µM (inactive)	–	13.6 µM (inactive)	18 µM (inactive)	11.7 µM (inactive)	13.3 µM (inactive)	–	24.9 µM (inactive)
COC(=O)C(Cc1nc2ccccc2nc1O)C(=O)C(=O)Nc1ccc(F)cc1 (stereo not drawn)	32.9 µM (inactive)	–	54 µM (inactive)	48.1 µM (inactive)	46.7 µM (inactive)	15.7 µM (inactive)	> 100 µM (inactive)	32.7 µM (inactive)	> 100 µM (inactive)
COc1ccc(/C=C/C(=N\NC(=O)c2ccccc2)c2sc(Nc3ccc([N+](=O)[O-])cc3)nc2C)cc1OC	6.27 µM (inactive)	8.55 µM (inactive)	10.3 µM (inactive)	12.5 µM (inactive)	12.6 µM (inactive)	7.67 µM (inactive)	8.67 µM (inactive)	–	27.7 µM (inactive)
O=C(Nc1ccccc1)C(=O)C(C(=O)c1ccccc1F)C1OC(=O)c2ccccc21 (stereo not drawn)	41.9 µM (inactive)	> 100 µM (inactive)	20.7 µM (inactive)	31.3 µM (inactive)	30.1 µM (inactive)	23.6 µM (inactive)	33.6 µM (inactive)	31.2 µM (inactive)	–
CCOC(=O)CC(=O)ON(C)C(=O)Cc1ccccc1	> 100 µM (inactive)	> 100 µM (inactive)	–	–	> 100 µM (inactive)	> 100 µM (inactive)	> 100 µM (inactive)	> 100 µM (inactive)	–
CC(C)=CC(=O)OC1C2C(C)C(=O)OC2C(O)C(C)C2C=CC(=O)C21C (stereo not drawn)	1.14 µM (inactive)	3.24 µM (inactive)	5.08 µM (inactive)	4.25 µM (inactive)	3.01 µM (inactive)	–	3.42 µM (inactive)	–	6.67 µM (inactive)
C[P+](C)(C)c1ccccc1	> 100 µM (inactive)	–	> 100 µM (inactive)	> 100 µM (inactive)	> 100 µM (inactive)	> 100 µM (inactive)	> 100 µM (inactive)	> 100 µM (inactive)	> 100 µM (inactive)
CCOC(OC1=C(C#N)CCCC1)C(CC)[Se]c1ccccc1[N+](=O)[O-] (stereo not drawn)	17.9 µM (inactive)	25.5 µM (inactive)	30.2 µM (inactive)	20.9 µM (inactive)	19.1 µM (inactive)	26.5 µM (inactive)	17.2 µM (inactive)	–	26.5 µM (inactive)
Cc1cc(N(CCC#N)CCC#N)ccc1/N=N/c1cccc(C(=O)O)c1	> 100 µM (inactive)	> 100 µM (inactive)	52.4 µM (inactive)	> 100 µM (inactive)	> 100 µM (inactive)	> 100 µM (inactive)	–	> 100 µM (inactive)	> 100 µM (inactive)
CC(C)CCCCCCCCCCCCC(=O)NCC(=O)NC1C(C)OC(Nc2ncnc3c2ncn3C)C(O)C1O (stereo not drawn)	12.1 µM (inactive)	4.72 µM (inactive)	3.56 µM (inactive)	1.81 µM (inactive)	11.4 µM (inactive)	–	4.02 µM (inactive)	–	2.48 µM (inactive)
CN1OC(=O)N(C)C1c1ccccc1 (stereo not drawn)	> 100 µM (inactive)	> 100 µM (inactive)	> 100 µM (inactive)	> 100 µM (inactive)	> 100 µM (inactive)	–	> 100 µM (inactive)	–	> 100 µM (inactive)
CCCCCCCCCCCC(=O)OC[C@H](C[As](=O)(O)O)OC(=O)CCCCCCCCCCC	13.2 µM (inactive)	2.94 µM (inactive)	10.1 µM (inactive)	3.98 µM (inactive)	8.18 µM (inactive)	3.82 µM (inactive)	6.04 µM (inactive)	–	7.29 µM (inactive)
Cc1cc(O)nc(NNC(C#N)c2cccc(O)c2)n1 (stereo not drawn)	> 100 µM (inactive)	> 100 µM (inactive)	–	> 100 µM (inactive)	> 100 µM (inactive)	> 100 µM (inactive)	> 100 µM (inactive)	–	86.7 µM (inactive)
COc1ccc(C2Oc3cc(OC)c(O)cc3[C@@H]2C)cc1 (stereo partly drawn)	19.9 µM (inactive)	> 100 µM (inactive)	16.9 µM (inactive)	29.4 µM (inactive)	> 10 µM (inactive)	17.5 µM (inactive)	49.5 µM (inactive)	–	5.05 µM (inactive)
O=C(c1ccc(O)cc1O)C1C(c2ccc(O)cc2)OC(c2ccc(O)cc2)C1C(=O)c1ccc(O)cc1O (stereo not drawn)	44.1 µM (inactive)	19.1 µM (inactive)	15.5 µM (inactive)	16 µM (inactive)	19.6 µM (inactive)	17.3 µM (inactive)	71 µM (inactive)	–	–
CCC1(c2ccc(N)cc2)CCC(=O)NC1=O (stereo not drawn) [AMINOGLUTETHIMIDE]	3230 µM (inactive)	2170 µM (inactive)	1550 µM (inactive)	2560 µM (inactive)	2210 µM (inactive)	–	3940 µM (inactive)	–	3120 µM (inactive)
